From article PMC11521914 (Frontiers in Pharmacology, 2024)

Legend:
[1] = target: Protein tyrosine phosphatase 1B (PTP-1B); test: Protein tyrosine phosphatase 1B (PTP-1B) enzyme activity inhibition assay; assay type: biochemical; settings: rat liver supernatant, 10 mM pNPP
Method: One day before the isolation of the enzyme-containing subcellular fraction, lysis buffer was prepared (50 mM HEPES, 0.1 mM EGTA, 0.1 mM EDTA, 120 mM NaCl, 0.5% NP-40, pH 7.5) and enriched with one protease inhibitor cocktail tablet per 10 mL of buffer. The liver from an overnight-fasted healthy rat, previously anesthetized with isoflurane, was removed. The organ was then homogenized in lysis buffer as described by [Li et al. (2010)]. The homogenate was filtered and subsequently centrifuged at 14,000 g for 15 min at 4°C. Supernatants were collected and stored at −40°C until use.
Colorimetric assays were carried out to detect the dephosphorylation of pNPP, which is proportional to the activity of the PTP-1B enzyme. Three independent assays were performed in triplicate following the protocols proposed by [Guo et al. (2015)] and [Song et al. (2017)] with slight modifications. […] Finally, the absorbance was measured at 405 nm.
Finally, for in vitro experiments, absorbance values were transformed into activity percentages following the next formula: Enzyme activity %=AS−ASB/AC−ACB×100
Where A S is the absorbance of the inhibitor sample at a specific concentration, A SB is the blank of the inhibitor sample, A C is the highest absorbance (without inhibitor), and A CB is the blank of the highest absorbance. […]

[2] = system: STZ-NA-hyperglycemic rats; test: Pyruvate tolerance tests (inhibition of hepatic glucose production); assay type: in vivo, Wistar rats; settings: rats fasted 18 h, pyruvate 2 g/kg i.p.; metformin 500 mg/kg b.w. oral
Method: Treatment administration (vehicle and samples) was performed orally with the help of an esophageal cannula. Blood samples were obtained from the tail vein and glucose measurements were performed in duplicate using Accu-Chek® Active glucometers.
In summary hyperglycemia was induced as described by [Masiello et al. (1998)], rats fasted for 12 h were administered intraperitoneally with 150 mg/kg b. w. of NA and, 15 min later, 65 mg/kg b. w. of STZ was injected intravenously. After 2 weeks, animals with blood glucose values above 180 mg/dL were selected to perform the tests described below.
After basal glucose measurement, animals received their corresponding treatment. Fifteen minutes later, rats were injected intraperitoneally with a pyruvate solution (2 g/kg b. w.). In total, 30 rats were divided into five groups (n = 6 each group): 1. Normoglycemic Control + pyruvate (NP), receiving physiological solution; 2. Hyperglycemic Control + pyruvate (HP), which was administered with physiological solution; 3. […] (HMP); 4. Hyperglycemic Group + pyruvate + EtOH-WCg, administered with 30 mg/kg b. w. (HCgP); and 5. […] (HJaP). After intraperitoneal injection, glucose levels were measured every 30 min for 2 h ([Mata-Torres et al., 2020]).

Chain of Protein tyrosine phosphatase 1B (PTP-1B) (P20417 whole entry): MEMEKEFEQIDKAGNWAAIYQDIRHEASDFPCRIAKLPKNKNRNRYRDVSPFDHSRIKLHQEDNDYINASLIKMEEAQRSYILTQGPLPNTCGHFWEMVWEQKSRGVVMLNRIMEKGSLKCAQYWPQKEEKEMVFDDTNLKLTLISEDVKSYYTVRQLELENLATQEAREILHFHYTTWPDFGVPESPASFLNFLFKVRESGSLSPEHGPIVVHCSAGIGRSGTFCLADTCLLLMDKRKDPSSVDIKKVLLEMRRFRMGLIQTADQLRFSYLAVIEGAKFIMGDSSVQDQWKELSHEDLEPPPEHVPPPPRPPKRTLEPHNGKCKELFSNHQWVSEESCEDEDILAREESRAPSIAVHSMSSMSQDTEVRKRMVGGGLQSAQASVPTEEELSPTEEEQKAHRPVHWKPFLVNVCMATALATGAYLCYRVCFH

Structure (SMILES)	IC50 ± SEM [1] [µg/mL]	Inhibition % [1] [%]	effect on the hyperglycemic peak 30 min after pyruvate injection [2]
[Na+].[Na+].[Na+].[O]=[V]([O-])([O-])[O-] [Na3VO4]	43.2 ± 1.5	97	
CN(C)C(=N)N=C(N)N [metformin]			completely inhibited the hyperglycemic peak
